Laboratory results: US4054659A, “5,7 Dihydroxy-1-(trimethoxybenzyl)-1,2,3,H-tetrahydroisoquinolines and use thereof” (Tanabe Seiyaku Co., Ltd., priority 1974, dated 1977)

Experiments:
[1] = tested on: heart rate; assay: Increase of heart rate after duodenal administration in anesthetized cats; format: in vivo; conditions: 10 μg/kg, duodenum
Experimental: (§1) Cats were anesthetized with sodium pentobarbital (40 mg/.kg, i.p.). Under artificial respiration (13 - 15 ml of air/kg/stroke, 30 strokes/minute) thereof, the cats were immobilized by intraveous injection of gallamine triethyodide (8 mg/kg). Serotonin.creatinin sulfate (=bronchoconstrictor) was injected intravenously to the cats at the dose of 20 μg/kg, and the intratracheal pressure was measured by means of a pressure transducer. Then, each one of test compounds was administered to the duodenum of the cats at the dose of 10 μg/kg, and the intratracheal pressure and the heart rate were measured with the passage of time. The bronchodilating activity was estimated by the preventive effects (%) of each test compound against bronchoconstriction.

[2] = tested on: serotonin-creatinin sulfate-induced bronchoconstriction; assay: Preventive effects against serotonin-creatinin sulfate-induced bronchoconstriction (bronchodilating activity) in anesthetized cats; format: in vivo; conditions: for Preventive effects against bronchoconstriction: cats, 10 μg/kg, duodenum
From the text: The 5,7-dihydroxy-tetrahydroisoquinoline derivative (I) of the present invention or a pharmaceutically acceptable acid addition salt thereof has potent bronchodilating activity and is useful as a bronchodilator. Moreover, as compared with 6,7-dihydroxy-1-(3,4,5-trimethoxybenzyl)-1,2,3,4-tetrahydroisoquinoline, the 5,7-dihydroxy-tetrahydroisoquinoline derivative (I) of the present invention is more useful because of the longer duration of its point bronchodilating activity and/or lesser side effects (e.g., lesser increase of the heart rate). […] However, the bronchodilating activity of the former lasts for more than 3.5 hours at its maximum level, whereas the latter decreases to about 1/3 the maximum level after 3.5 hours.
as §1

[3] = 50% lethal dose (LD50) by intravenous injection to mice; conditions: mouse, in vivo
From the text: The toxicity of the 5,7-dihydroxytetrahydroisoquinoline derivative (I) of the present invention is considerably low.

[4] = 15 minutes after administration
[5] = 30 minutes after administration
[6] = 45 minutes after administration
[7] = 60 minutes after administration
[8] = 75 minutes after administration
[9] = 90 minutes after administration
[10] = 120 minutes after administration
[11] = 150 minutes after administration
[12] = 180 minutes after administration
[13] = 210 minutes after administration

| Compound | Preventive effects against bronchoconstriction ([2]; 5 minutes after administration) | Preventive effects against bronchoconstriction [2, 4] | Preventive effects against bronchoconstriction [2, 5] | Preventive effects against bronchoconstriction [2, 6] | Preventive effects against bronchoconstriction [2, 7] | Preventive effects against bronchoconstriction [2, 8] | Preventive effects against bronchoconstriction [2, 9] | Preventive effects against bronchoconstriction [2, 10] | Preventive effects against bronchoconstriction [2, 11] | Preventive effects against bronchoconstriction [2, 12] | Preventive effects against bronchoconstriction [2, 13] | also measured |
| --- | --- | --- | --- | --- | --- | --- | --- | --- | --- | --- | --- | --- |
| COc1cc(CC2NCCc3c(O)cc(O)cc32)cc(OC)c1OC.Cl (stereo not shown) [A, 5,7-dihydroxy-1-(3,4,5-trimethoxybenzyl)-1,2,3,4-tetrahydroisoquinoline hydrochloride] | 8.5 ± 3.2% | 47.9 ± 8.5% | 63.5 ± 9.9% | 69.7 ± 8.7% | 71.1 ± 7.1% | 70.7 ± 6.8% | 72.5 ± 6.1% | 71.0 ± 5.6% | 70.2 ± 6.4% | 69.1 ± 5.7% | 64.6 ± 7.4% | Increase of heart rate (Number of heart beats increased/minute) ([1]; 5 minutes after administration): 1.3 ± 0.3 heart beats increased/minute; Increase of heart rate (Number of heart beats increased/minute) [1, 4]: 10.6 ± 3.4 heart beats increased/minute; Increase of heart rate (Number of heart beats increased/minute) [1, 5]: 22.2 ± 6.5 heart beats increased/minute; Increase of heart rate (Number of heart beats increased/minute) [1, 6]: 21.3 ± 5.2 heart beats increased/minute; Increase of heart rate (Number of heart beats increased/minute) [1, 7]: 20.0 ± 4.4 heart beats increased/minute; Increase of heart rate (Number of heart beats increased/minute) [1, 8]: 18.7 ± 3.8 heart beats increased/minute; Increase of heart rate (Number of heart beats increased/minute) [1, 9]: 17.8 ± 3.0 heart beats increased/minute; Increase of heart rate (Number of heart beats increased/minute) [1, 10]: 17.2 ± 2.3 heart beats increased/minute; Increase of heart rate (Number of heart beats increased/minute) [1, 11]: 15.2 ± 2.1 heart beats increased/minute; Increase of heart rate (Number of heart beats increased/minute) [1, 12]: 13.7 ± 1.4 heart beats increased/minute; Increase of heart rate (Number of heart beats increased/minute) [1, 13]: 12.0 ± 1.4 heart beats increased/minute; Duration of bronchodilating activity at its maximum level ([2]; after duodenal administration): more than 3.5 hours; Maximum preventive effects compared with 6,7-dihydroxy-1-(3,4,5-trimethoxybenzyl)-1,2,3,4-tetrahydroisoquinoline (hydrochloride) ([2]; duodenal administration): almost the same maximum preventive effects; LD50 [3]: ~51 mg/kg |
| COc1cc(CC2NCCc3cc(O)c(O)cc32)cc(OC)c1OC.Cl (stereo not shown) [B, 6,7-dihydroxy-1-(3,4,5-trimethoxybenzyl)-1,2,3,4-tetrahydroisoquinolin hydrochloride, reference compound] | 21.1 ± 8.6% | 71.2 ± 7.6% | 77.6 ± 5.2% | 73.9 ± 2.6% | 67.2 ± 3.4% | 62.3 ± 5.1% | 54.7 ± 6.0% | 45.5 ± 7.5% | 38.0 ± 8.7% | 31.6 ± 9.5% | 26.0 ± 7.4% | Bronchodilating activity remaining after 3.5 hours, as fraction of the maximum level ([2]; after 3.5 hours, duodenal administration): about 1/3 |
